# Experimental data taken from US9029451B2, “Waterborne coating compositions that include 2,2,4-trimethyl-3-oxopentanoate esters as reactive coalescents” (Eastman Chemical Company, priority 2010, dated 2015).
# Read-outs that look alike come from different tables or passages of the source.
# How the values were obtained:
# [1] = Boiling point of coalescent; assay type: physicochemical
# Protocol: The novel compounds were evaluated for their coalescing properties and compared to 2,2,4-trimethylpentane-1,3-diol monoisobutyrate (Texanol) and Optifilm Enhancer 400 (OE 400), two coalescents that are widely used in industry (Table 2).
# [2] = % non-volatile, 110° C. for 1 hour (ASTM D2369); assay type: physicochemical
# Protocol: 2,2,4-trimethyl-3-oxopentanoate esters useful as reactive coalescents according to the invention include those having a weight percent volatile content of less than 50%, as measured according to ASTM Method D2369. This test may be conducted generally by heating the sample in a forced air oven at 110° C. for 60 minutes. The weight loss after the test is deemed to result from a loss of volatiles originally present in the sample; the percent volatile present in the original sample may then be calculated. Although the cited test can be conducted on coating compositions containing other components such as latex polymers, the values cited herein may be obtained from a sample of the coalescent itself. Thus, the weight percent volatile of a coalescent may be used herein as a yardstick to measure the amount of VOC the coalescent would contribute to the VOC of a coating composition.
# Density, ASTM D 1475-98 = assay type: physicochemical
# [3] = Water miscibility, % water in solvent method (Karl Fischer); assay type: physicochemical; details: stirred approx. 48 hours
# Protocol: (§1) Water miscibility was measured by the following methods:
# % Water in Solvent Method:
# Approximately 5-10 mL of the novel coalescent was slowly added to 10-15 mL Milli-Q water in an 8-dram vial. The mixture was slowly stirred for approximately 48 hours at 100-150 rpm. The organic layer was analyzed in triplicate for percent water by Karl Fischer methodology.
# [4] = Water miscibility, % organic in water method (gravimetric); assay type: physicochemical; details: saturation point
# Protocol: as §1
# % Organic in Water Method:
# The novel coalescent was added drop wise to 25 mL Milli-Q water and the mixture stirred at 1000 rpm for 10 minutes. If the coalescent dissolved, an additional drop or drops were added until traces of the organic solvent remained after the mixture had been stirred for 20 minutes. The percent organic solvent at the saturation point was determined gravimetrically.
# [5] = Hydrolytic stability in latex at 120° F., pH and Brookfield viscosity; assay type: physicochemical
# Protocol: Approximately 100 grams of either Rhoplex AC 2508 (Rohm & Haas acrylic polymer emulsion) or Rhoplex SG-10M (Rohm & Haas acrylic polymer emulsion) was weighed out into a 4 ounce jar and 10 phr (parts per hundred resin) of the coalescing aid was added (based on percent solids of the emulsion by weight). The sample was placed on lab rollers for 24 hours before the initial pH and viscosity was taken. The viscosity was measured by a Brookfield viscometer in centipoises. The sample was then placed into a lab oven at 120° F. The pH and viscosity was checked weekly for four weeks (Tables 3 & 4). Any change in the appearance of the sample such as gel particles or phase separation was recorded weekly also.
# [6] = MFFT testing, coalescing efficiency
# Protocol: The MFFT samples were prepared by weighing out 20 grams (+/−0.01 g) of emulsion into 50 ml beakers. The beakers of emulsion were placed on magnetic stirrers and the coalescing aid added dropwise by pipet. The weight of the drops were determined by adding 40 drops of the coalescing aid to a tared weighing dish, then the weight per drop was calculated by taking an average of the total weight (total weight divided by 40 drops). The coalescing aid was added to the emulsion based on solids by weight. The MFFT samples were allowed to stir for approximately 15 minutes, transferred to 8 dram vials and placed onto lab rollers and allowed to equilibrate for at least 24 hours. The samples were then drawn down on the MFFT bar, which is typically set on range #2 (0° to 18° C.), and the films allowed to dry. The areas in which the films have stopped cracking are visually determined and the MFFT value is read from the scale on the instrument and converted to degrees Fahrenheit. Linear Regression was used to calculate the amount of coalescing aid required to lower the films MFFT to 40° F. In Table #5, the phr40 values (parts per hundred resin based on solids by weight) are the amount of coalescing aid required to reduce the MFFT to 40° F. A lower number indicates the coalescent is more efficient at reducing the MFFT of the film.
# [7] = Rhoplex AC 2508, 10 phr coalescent, Initial
# [8] = Rhoplex AC 2508, 10 phr, 120° F., 1 week
# [9] = Rhoplex AC 2508, 10 phr, 120° F., 2 weeks
# [10] = Rhoplex AC 2508, 10 phr, 120° F., 3 weeks
# [11] = Rhoplex AC 2508, 10 phr, 120° F., 4 weeks
# [12] = latex Acronal 296D, linear regression
# [13] = latex Rhoplex HG-74P, linear regression
# [14] = latex Rhoplex SG-10M, linear regression
# [15] = latex Ucar 379G, linear regression
# [16] = latex Ucar 626, linear regression
# [17] = Rhoplex SG-10M, 10 phr coalescent, Initial
# [18] = Rhoplex SG-10M, 10 phr, 120° F., 1 week
# [19] = Rhoplex SG-10M, 10 phr, 120° F., 2 weeks
# [20] = Rhoplex SG-10M, 10 phr, 120° F., 3 weeks
# [21] = Rhoplex SG-10M, 10 phr, 120° F., 4 weeks
# [22] = Rhoplex SG-10M, compared with industry standards
# [23] = Rhoplex AC 2508, compared with industry standards
Molecule,Boiling Point (° C. @ 760 torr) [1],% non-volatile @ 110° C. for 1 hour [2],"Density (lbs/gal) (Density, ASTM D 1475-98)",Water Miscibility % water in solvent layer [3],Water Miscibility % solvent in water layer [4],"Viscosity (cps) [5, 7]","pH [5, 7]","Viscosity (cps) [5, 8]","pH [5, 8]","Viscosity (cps) [5, 9]","pH [5, 9]","Viscosity (cps) [5, 10]","pH [5, 10]","Viscosity (cps) [5, 11]","pH [5, 11]","phr of Coalescent required to lower MFFT to 40° F. [6, 12]","phr of Coalescent required to lower MFFT to 40° F. [6, 13]","phr of Coalescent required to lower MFFT to 40° F. [6, 14]","phr of Coalescent required to lower MFFT to 40° F. [6, 15]","phr of Coalescent required to lower MFFT to 40° F. [6, 16]",also measured
"CC(C)C(=O)C(C)(C)C(=O)OCCO [Example 1, 2-Hydroxyethyl 2,2,4-trimethyl-3-oxopentanoate]",254.8 °C,10.6%,8.75 lbs/gal,7.6%,5.0%,1430 cps,8.3,1360 cps,7.7,1150 cps,7.7,1060 cps,7.6,1070 cps,7.4,4.2 phr,8.2 phr,4.7 phr,1.5 phr,6.5 phr,
"2,2,4-trimethylpentane-1,3-diol monoisobutyrate [Texanol, reference compound]",,0.0%,7.92 lbs/gal,3.0%,0.1%,905 cps,8.2,685 cps,7.9,665 cps,8.0,631 cps,7.8,638 cps,7.9,4.7 phr,8.3 phr,4.6 phr,0.1 phr,6.2 phr,"Boiling Point (° C. @ 760 torr) ([1]; @ 760 torr): 255.0 °C; Viscosity (cps) [5, 17]: 544 cps; pH [5, 17]: 8.7; Viscosity (cps) [5, 18]: 554 cps; pH [5, 18]: 8.5; Viscosity (cps) [5, 19]: 484 cps; pH [5, 19]: 8.8; Viscosity (cps) [5, 20]: 474 cps; pH [5, 20]: 8.6; Viscosity (cps) [5, 21]: 471 cps; pH [5, 21]: 8.3"
"CCCCOCCOCCOC(=O)C(C)(C)C(=O)C(C)C [Example 5, 2-(2-Butoxyethoxy)ethyl 2,2,4-trimethyl-3-oxopentanoate]",272.1 °C,64.0%,8.02 lbs/gal,0.40%,0.02%,,,,,,,,,,,4.2 phr,,4.6 phr,0.9 phr,,"Viscosity (cps) [5, 17]: 548 cps; pH [5, 17]: 8.6; Viscosity (cps) [5, 18]: 631 cps; pH [5, 18]: 8.3; Viscosity (cps) [5, 19]: 461 cps; pH [5, 19]: 8.7; Viscosity (cps) [5, 20]: 458 cps; pH [5, 20]: 8.6; Viscosity (cps) [5, 21]: 511 cps; pH [5, 21]: 8.2; hydrolytic stability, in words [5, 22]: better than the industry standards"
CC(C)C(=O)C(C)(C)C(=O)OCCOCCOCCOC(=O)C(C)(C)C(=O)C(C)C [Example 4],320.0 °C,99.0%,8.82 lbs/gal,0.01%,0.09%,1380 cps,8.4,1200 cps,8.3,1210 cps,8.2,1150 cps,8.3,1100 cps,8.2,5.8 phr,9.1 phr,6.7 phr,1.3 phr,7.0 phr,"volatility, in words ([2]; compared with Texanol): almost completely nonvolatile; hydrolytic stability, in words [5, 23]: better than the industry standards"
"CCCCC(CC)COCCOC(=O)C(C)(C)C(=O)C(C)C (centres unmarked) [Example 6, 2-(2-Ethylhexyloxy)ethyl 2,2,4-trimethyl-3-oxopentanoate]",281.6 °C,58.7%,7.80 lbs/gal,0.03%,0.00%,,,,,,,,,,,5.0 phr,,4.0 phr,1.3 phr,,"Viscosity (cps) [5, 17]: 474 cps; pH [5, 17]: 8.6; Viscosity (cps) [5, 18]: 585 cps; pH [5, 18]: 8.4; Viscosity (cps) [5, 19]: 484 cps; pH [5, 19]: 8.8; Viscosity (cps) [5, 20]: 347 cps; pH [5, 20]: 8.8; Viscosity (cps) [5, 21]: 461 cps; pH [5, 21]: 8.4; hydrolytic stability, in words [5, 22]: better than the industry standards"
"CC(C)C(=O)C(C)(C)C(=O)OCC(C)(C)C(O)C(C)C (centres unmarked) [Example 3, 3-Hydroxy-2,2,4-trimethylpentyl 2,2,4-trimethyl-3-oxopentanoate]",287.7 °C,63.8%,8.13 lbs/gal,2.1%,0.07%,1430 cps,8.5,1300 cps,8.4,1290 cps,8.4,1250 cps,8.4,1130 cps,8.3,6.0 phr,9.7 phr,5.6 phr,1.3 phr,8.2 phr,"hydrolytic stability, in words [5, 23]: better than the industry standards"
"CC(C)C(=O)C(C)(C)C(=O)OCC(C)(C)CO [Example 2, 3-Hydroxy-2,2-dimethylpropyl 2,2,4-trimethyl-3-oxopentanoate]",291.2 °C,47.9%,8.34 lbs/gal,4.0%,0.09%,1510 cps,8.5,1260 cps,8.4,1230 cps,8.4,1220 cps,8.3,1130 cps,8.3,5.9 phr,8.8 phr,5.6 phr,1.6 phr,6.4 phr,"hydrolytic stability, in words [5, 23]: better than the industry standards"
